# The supplement of paper PMC8967900
# Tested on: P12-ICHIKAWA
# Test: selective drug sensitivity score (sDSS, relative to normal bone marrow) (sDSS (score)); higher = more potent and effective on the cell line relative to normal bone marrow cells
# Conditions: 72 h
# 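Further: ALL cell lines in 384-well plates, five doses spanning 10,000-fold, each plate scaled between vehicle and 100 µmol/L benzalkonium chloride controls, sDSS an adapted area-under-curve metric.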
row,SMILES,selective drug sensitivity score
1,Cn1cc(C[C@@H](N)C(=O)O)c2ccccc21 [1-methyl-D-tryptophan] (top concentration 5000 nM),-0.62
2,CN(C)C[C@@H]1CCn2cc(c3ccccc32)C2=C(C(=O)NC2=O)c2cn(c3ccccc23)CCO1 [Ruboxistaurin] (top concentration 10000 nM),-1.74
3,CCNC(=O)CCC/C=C\C[C@@H]1[C@@H](/C=C/[C@@H](O)CCc2ccccc2)[C@H](O)C[C@@H]1O [Bimatoprost] (top concentration 5500 nM),0
4,O=c1[nH]cc(F)c(=O)[nH]1 [Fluorouracil] (top concentration 10000 nM),0.46
5,CC1(C)NC(=O)N(c2ccc([N+](=O)[O-])c(C(F)(F)F)c2)C1=O [Nilutamide] (top concentration 10000 nM),-0.48
6,CNC(=O)c1ccc2cc([C@@]3(O)CCn4cncc43)ccc2c1 [Orteronel] (top concentration 10000 nM),0
7,CCC(C)(C)C(=O)O[C@H]1C[C@@H](C)C=C2C=C[C@H](C)[C@H](CC[C@@H]3C[C@@H](O)CC(=O)O3)[C@H]21 [Simvastatin] (top concentration 10000 nM),2.18
8,C[C@]12CC[C@H](O)CC1=CC[C@@H]1[C@@H]2CC[C@]2(C)C(c3cccnc3)=CC[C@@H]12 [Abiraterone] (top concentration 5000 nM),-0.12

# Tested on: NALM-16
# Test: as above
# Conditions: 72 h
row,SMILES,selective drug sensitivity score
1,Cn1cc(C[C@@H](N)C(=O)O)c2ccccc21 [1-methyl-D-tryptophan] (top concentration 5000 nM),-0.62
2,CN(C)C[C@@H]1CCn2cc(c3ccccc32)C2=C(C(=O)NC2=O)c2cn(c3ccccc23)CCO1 [Ruboxistaurin] (top concentration 10000 nM),-3.74
3,CCNC(=O)CCC/C=C\C[C@@H]1[C@@H](/C=C/[C@@H](O)CCc2ccccc2)[C@H](O)C[C@@H]1O [Bimatoprost] (top concentration 5500 nM),0
4,O=c1[nH]cc(F)c(=O)[nH]1 [Fluorouracil] (top concentration 10000 nM),-0.24
5,CC1(C)NC(=O)N(c2ccc([N+](=O)[O-])c(C(F)(F)F)c2)C1=O [Nilutamide] (top concentration 10000 nM),-0.48
6,CNC(=O)c1ccc2cc([C@@]3(O)CCn4cncc43)ccc2c1 [Orteronel] (top concentration 10000 nM),0
7,CCC(C)(C)C(=O)O[C@H]1C[C@@H](C)C=C2C=C[C@H](C)[C@H](CC[C@@H]3C[C@@H](O)CC(=O)O3)[C@H]21 [Simvastatin] (top concentration 10000 nM),-0.72
8,C[C@]12CC[C@H](O)CC1=CC[C@@H]1[C@@H]2CC[C@]2(C)C(c3cccnc3)=CC[C@@H]12 [Abiraterone] (top concentration 5000 nM),-0.12

# Tested on: 697
# Test: as above
# Conditions: 72 h
row,SMILES,selective drug sensitivity score
1,Cn1cc(C[C@@H](N)C(=O)O)c2ccccc21 [1-methyl-D-tryptophan] (top concentration 5000 nM),-0.62
2,CN(C)C[C@@H]1CCn2cc(c3ccccc32)C2=C(C(=O)NC2=O)c2cn(c3ccccc23)CCO1 [Ruboxistaurin] (top concentration 10000 nM),2.36
3,CCNC(=O)CCC/C=C\C[C@@H]1[C@@H](/C=C/[C@@H](O)CCc2ccccc2)[C@H](O)C[C@@H]1O [Bimatoprost] (top concentration 5500 nM),0
4,O=c1[nH]cc(F)c(=O)[nH]1 [Fluorouracil] (top concentration 10000 nM),3.46
5,CC1(C)NC(=O)N(c2ccc([N+](=O)[O-])c(C(F)(F)F)c2)C1=O [Nilutamide] (top concentration 10000 nM),0.22
6,CNC(=O)c1ccc2cc([C@@]3(O)CCn4cncc43)ccc2c1 [Orteronel] (top concentration 10000 nM),0
7,CCC(C)(C)C(=O)O[C@H]1C[C@@H](C)C=C2C=C[C@H](C)[C@H](CC[C@@H]3C[C@@H](O)CC(=O)O3)[C@H]21 [Simvastatin] (top concentration 10000 nM),-0.22
8,C[C@]12CC[C@H](O)CC1=CC[C@@H]1[C@@H]2CC[C@]2(C)C(c3cccnc3)=CC[C@@H]12 [Abiraterone] (top concentration 5000 nM),-0.12

# Tested on: RPMI-8402
# Test: as above
# Conditions: 72 h
row,SMILES,selective drug sensitivity score
1,Cn1cc(C[C@@H](N)C(=O)O)c2ccccc21 [1-methyl-D-tryptophan] (top concentration 5000 nM),-0.62
2,CN(C)C[C@@H]1CCn2cc(c3ccccc32)C2=C(C(=O)NC2=O)c2cn(c3ccccc23)CCO1 [Ruboxistaurin] (top concentration 10000 nM),-1.74
3,CCNC(=O)CCC/C=C\C[C@@H]1[C@@H](/C=C/[C@@H](O)CCc2ccccc2)[C@H](O)C[C@@H]1O [Bimatoprost] (top concentration 5500 nM),0
4,O=c1[nH]cc(F)c(=O)[nH]1 [Fluorouracil] (top concentration 10000 nM),2.66
5,CC1(C)NC(=O)N(c2ccc([N+](=O)[O-])c(C(F)(F)F)c2)C1=O [Nilutamide] (top concentration 10000 nM),-0.18
6,CNC(=O)c1ccc2cc([C@@]3(O)CCn4cncc43)ccc2c1 [Orteronel] (top concentration 10000 nM),0
7,CCC(C)(C)C(=O)O[C@H]1C[C@@H](C)C=C2C=C[C@H](C)[C@H](CC[C@@H]3C[C@@H](O)CC(=O)O3)[C@H]21 [Simvastatin] (top concentration 10000 nM),2.08
8,C[C@]12CC[C@H](O)CC1=CC[C@@H]1[C@@H]2CC[C@]2(C)C(c3cccnc3)=CC[C@@H]12 [Abiraterone] (top concentration 5000 nM),-0.12

# Tested on: CCRF-CEM
# Test: as above
# Conditions: 72 h
row,SMILES,selective drug sensitivity score
1,Cn1cc(C[C@@H](N)C(=O)O)c2ccccc21 [1-methyl-D-tryptophan] (top concentration 5000 nM),-0.62
2,CN(C)C[C@@H]1CCn2cc(c3ccccc32)C2=C(C(=O)NC2=O)c2cn(c3ccccc23)CCO1 [Ruboxistaurin] (top concentration 10000 nM),-0.34
3,CCNC(=O)CCC/C=C\C[C@@H]1[C@@H](/C=C/[C@@H](O)CCc2ccccc2)[C@H](O)C[C@@H]1O [Bimatoprost] (top concentration 5500 nM),0
4,O=c1[nH]cc(F)c(=O)[nH]1 [Fluorouracil] (top concentration 10000 nM),3.06
5,CC1(C)NC(=O)N(c2ccc([N+](=O)[O-])c(C(F)(F)F)c2)C1=O [Nilutamide] (top concentration 10000 nM),-0.48
6,CNC(=O)c1ccc2cc([C@@]3(O)CCn4cncc43)ccc2c1 [Orteronel] (top concentration 10000 nM),0
7,CCC(C)(C)C(=O)O[C@H]1C[C@@H](C)C=C2C=C[C@H](C)[C@H](CC[C@@H]3C[C@@H](O)CC(=O)O3)[C@H]21 [Simvastatin] (top concentration 10000 nM),2.38
8,C[C@]12CC[C@H](O)CC1=CC[C@@H]1[C@@H]2CC[C@]2(C)C(c3cccnc3)=CC[C@@H]12 [Abiraterone] (top concentration 5000 nM),-0.12

# Tested on: KARPAS-45
# Test: as above
# Conditions: 72 h
row,SMILES,selective drug sensitivity score
1,Cn1cc(C[C@@H](N)C(=O)O)c2ccccc21 [1-methyl-D-tryptophan] (top concentration 5000 nM),-0.62
2,CN(C)C[C@@H]1CCn2cc(c3ccccc32)C2=C(C(=O)NC2=O)c2cn(c3ccccc23)CCO1 [Ruboxistaurin] (top concentration 10000 nM),-0.14
3,CCNC(=O)CCC/C=C\C[C@@H]1[C@@H](/C=C/[C@@H](O)CCc2ccccc2)[C@H](O)C[C@@H]1O [Bimatoprost] (top concentration 5500 nM),0
4,O=c1[nH]cc(F)c(=O)[nH]1 [Fluorouracil] (top concentration 10000 nM),0.46
5,CC1(C)NC(=O)N(c2ccc([N+](=O)[O-])c(C(F)(F)F)c2)C1=O [Nilutamide] (top concentration 10000 nM),-0.48
6,CNC(=O)c1ccc2cc([C@@]3(O)CCn4cncc43)ccc2c1 [Orteronel] (top concentration 10000 nM),0
7,CCC(C)(C)C(=O)O[C@H]1C[C@@H](C)C=C2C=C[C@H](C)[C@H](CC[C@@H]3C[C@@H](O)CC(=O)O3)[C@H]21 [Simvastatin] (top concentration 10000 nM),2.58
8,C[C@]12CC[C@H](O)CC1=CC[C@@H]1[C@@H]2CC[C@]2(C)C(c3cccnc3)=CC[C@@H]12 [Abiraterone] (top concentration 5000 nM),-0.12

# Tested on: KOPN-8
# Test: as above
# Conditions: 72 h
row,SMILES,selective drug sensitivity score
1,Cn1cc(C[C@@H](N)C(=O)O)c2ccccc21 [1-methyl-D-tryptophan] (top concentration 5000 nM),1.18
2,CN(C)C[C@@H]1CCn2cc(c3ccccc32)C2=C(C(=O)NC2=O)c2cn(c3ccccc23)CCO1 [Ruboxistaurin] (top concentration 10000 nM),0.86
3,CCNC(=O)CCC/C=C\C[C@@H]1[C@@H](/C=C/[C@@H](O)CCc2ccccc2)[C@H](O)C[C@@H]1O [Bimatoprost] (top concentration 5500 nM),0
4,O=c1[nH]cc(F)c(=O)[nH]1 [Fluorouracil] (top concentration 10000 nM),2.96
5,CC1(C)NC(=O)N(c2ccc([N+](=O)[O-])c(C(F)(F)F)c2)C1=O [Nilutamide] (top concentration 10000 nM),-0.48
6,CNC(=O)c1ccc2cc([C@@]3(O)CCn4cncc43)ccc2c1 [Orteronel] (top concentration 10000 nM),1
7,CCC(C)(C)C(=O)O[C@H]1C[C@@H](C)C=C2C=C[C@H](C)[C@H](CC[C@@H]3C[C@@H](O)CC(=O)O3)[C@H]21 [Simvastatin] (top concentration 10000 nM),4.48
8,C[C@]12CC[C@H](O)CC1=CC[C@@H]1[C@@H]2CC[C@]2(C)C(c3cccnc3)=CC[C@@H]12 [Abiraterone] (top concentration 5000 nM),1.78

# Tested on: MHH-CALL-3
# Test: as above
# Conditions: 72 h
row,SMILES,selective drug sensitivity score
1,Cn1cc(C[C@@H](N)C(=O)O)c2ccccc21 [1-methyl-D-tryptophan] (top concentration 5000 nM),1.48
2,CN(C)C[C@@H]1CCn2cc(c3ccccc32)C2=C(C(=O)NC2=O)c2cn(c3ccccc23)CCO1 [Ruboxistaurin] (top concentration 10000 nM),-4.24
3,CCNC(=O)CCC/C=C\C[C@@H]1[C@@H](/C=C/[C@@H](O)CCc2ccccc2)[C@H](O)C[C@@H]1O [Bimatoprost] (top concentration 5500 nM),0
4,O=c1[nH]cc(F)c(=O)[nH]1 [Fluorouracil] (top concentration 10000 nM),-0.24
5,CC1(C)NC(=O)N(c2ccc([N+](=O)[O-])c(C(F)(F)F)c2)C1=O [Nilutamide] (top concentration 10000 nM),-0.48
6,CNC(=O)c1ccc2cc([C@@]3(O)CCn4cncc43)ccc2c1 [Orteronel] (top concentration 10000 nM),0
7,CCC(C)(C)C(=O)O[C@H]1C[C@@H](C)C=C2C=C[C@H](C)[C@H](CC[C@@H]3C[C@@H](O)CC(=O)O3)[C@H]21 [Simvastatin] (top concentration 10000 nM),6.08
8,C[C@]12CC[C@H](O)CC1=CC[C@@H]1[C@@H]2CC[C@]2(C)C(c3cccnc3)=CC[C@@H]12 [Abiraterone] (top concentration 5000 nM),-0.12

# Tested on: P30-OHKUBO
# Test: as above
# Conditions: 72 h
row,SMILES,selective drug sensitivity score
1,Cn1cc(C[C@@H](N)C(=O)O)c2ccccc21 [1-methyl-D-tryptophan] (top concentration 5000 nM),0.58
2,CN(C)C[C@@H]1CCn2cc(c3ccccc32)C2=C(C(=O)NC2=O)c2cn(c3ccccc23)CCO1 [Ruboxistaurin] (top concentration 10000 nM),0.46
3,CCNC(=O)CCC/C=C\C[C@@H]1[C@@H](/C=C/[C@@H](O)CCc2ccccc2)[C@H](O)C[C@@H]1O [Bimatoprost] (top concentration 5500 nM),0
4,O=c1[nH]cc(F)c(=O)[nH]1 [Fluorouracil] (top concentration 10000 nM),3.16
5,CC1(C)NC(=O)N(c2ccc([N+](=O)[O-])c(C(F)(F)F)c2)C1=O [Nilutamide] (top concentration 10000 nM),-0.18
6,CNC(=O)c1ccc2cc([C@@]3(O)CCn4cncc43)ccc2c1 [Orteronel] (top concentration 10000 nM),0
7,CCC(C)(C)C(=O)O[C@H]1C[C@@H](C)C=C2C=C[C@H](C)[C@H](CC[C@@H]3C[C@@H](O)CC(=O)O3)[C@H]21 [Simvastatin] (top concentration 10000 nM),1.28
8,C[C@]12CC[C@H](O)CC1=CC[C@@H]1[C@@H]2CC[C@]2(C)C(c3cccnc3)=CC[C@@H]12 [Abiraterone] (top concentration 5000 nM),1.48

# Tested on: COG-LL-332h
# Test: as above
# Conditions: 72 h
row,SMILES,selective drug sensitivity score
1,Cn1cc(C[C@@H](N)C(=O)O)c2ccccc21 [1-methyl-D-tryptophan] (top concentration 5000 nM),-0.62
2,CN(C)C[C@@H]1CCn2cc(c3ccccc32)C2=C(C(=O)NC2=O)c2cn(c3ccccc23)CCO1 [Ruboxistaurin] (top concentration 10000 nM),1.16
3,CCNC(=O)CCC/C=C\C[C@@H]1[C@@H](/C=C/[C@@H](O)CCc2ccccc2)[C@H](O)C[C@@H]1O [Bimatoprost] (top concentration 5500 nM),0
4,O=c1[nH]cc(F)c(=O)[nH]1 [Fluorouracil] (top concentration 10000 nM),4.26
5,CC1(C)NC(=O)N(c2ccc([N+](=O)[O-])c(C(F)(F)F)c2)C1=O [Nilutamide] (top concentration 10000 nM),-0.48
6,CNC(=O)c1ccc2cc([C@@]3(O)CCn4cncc43)ccc2c1 [Orteronel] (top concentration 10000 nM),0
7,CCC(C)(C)C(=O)O[C@H]1C[C@@H](C)C=C2C=C[C@H](C)[C@H](CC[C@@H]3C[C@@H](O)CC(=O)O3)[C@H]21 [Simvastatin] (top concentration 10000 nM),0.68
8,C[C@]12CC[C@H](O)CC1=CC[C@@H]1[C@@H]2CC[C@]2(C)C(c3cccnc3)=CC[C@@H]12 [Abiraterone] (top concentration 5000 nM),-0.12
